Values after ≈ are worked out from the molar mass of the structure shown. Bounds are passed on as bounds.

What all share (type): functional
In test [1] the test system is Clostridioides difficile. As to the kind of experiment: Antimicrobial activity against Clostridium difficile harboring ribotype 001 by CLSI agar dilution method. In general terms: In agar dilution, organisms are placed on agar that contains the substance at set levels.
The subject of test [2] is Clostridioides difficile. As to the kind of experiment: Antimicrobial activity against Clostridium difficile harboring ribotype 027 by CLSI agar dilution method.
Test [3] has as its system Clostridioides difficile. Kind of test: Antimicrobial activity against Clostridium difficile harboring other ribotypes by CLSI agar dilution method.

Turning to `CCC[C@@H]1C[C@@H](C(=O)N[C@@H]([C@H]2O[C@H](SC)[C@H](O)[C@@H](O)[C@H]2O)[C@H](C)Cl)N(C)C1` [CLINDAMYCIN], in the test on Clostridioides difficile [1], the MIC was more than 64 µg/mL, the MIC50 is more than 64 µg/mL and the MIC90 is more than 64 µg/mL. For the same compound, in the test with Clostridioides difficile [2], the MIC50 worked out at 4 µg/mL (≈ 9.41 µM) and the MIC90 was found to be 8 µg/mL (≈ 18.8 µM). Also, in the test with Clostridioides difficile [3], the MIC50 turned out to be 4 µg/mL (≈ 9.41 µM) and the MIC90 was found to be 8 µg/mL (≈ 18.8 µM).

For the compound `COc1c(N2CCNC(C)C2)c(F)cc2c(=O)c(C(=O)O)cn(C3CC3)c12` (stereo not drawn) [GATIFLOXACIN], the values for the MIC50 against Clostridioides difficile [1], against Clostridioides difficile [2] and against Clostridioides difficile [3] were 32 µg/mL (≈ 85.2 µM), more than 32 µg/mL and 2 µg/mL (≈ 5.33 µM), respectively. Further, the results for the MIC90 in the test on Clostridioides difficile [1], in the test with Clostridioides difficile [2] and against Clostridioides difficile [3] were 32 µg/mL (≈ 85.2 µM), more than 32 µg/mL and more than 32 µg/mL, respectively.

Take `Cc1ncc([N+](=O)[O-])n1CCO` [METRONIDAZOLE]: the MIC50 against Clostridioides difficile [1] was found to be 0.5 µg/mL (≈ 2.92 µM); against Clostridioides difficile [2] it was 1 µg/mL (≈ 5.84 µM); against Clostridioides difficile [3], 0.25 µg/mL (≈ 1.46 µM). The MIC90 against Clostridioides difficile [1] stood at 0.5 µg/mL (≈ 2.92 µM); in the test on Clostridioides difficile [2] it was 1 µg/mL (≈ 5.84 µM); against Clostridioides difficile [3], 0.5 µg/mL (≈ 2.92 µM).

Regarding `CCS(=O)(=O)CCn1c([N+](=O)[O-])cnc1C` [TINIDAZOLE], the MIC50 against Clostridioides difficile [1] was determined as 0.5 µg/mL (≈ 2.02 µM); with Clostridioides difficile [2], 1 µg/mL (≈ 4.04 µM); against Clostridioides difficile [3], 0.25 µg/mL (≈ 1.01 µM). Besides, the MIC90 came to 0.5 µg/mL (≈ 2.02 µM) with Clostridioides difficile [1], 1 µg/mL (≈ 4.04 µM) in the test with Clostridioides difficile [2] and 0.5 µg/mL (≈ 2.02 µM) against Clostridioides difficile [3].

In the test on Clostridioides difficile [1], `CN[C@H](CC(C)C)C(=O)N[C@H]1C(=O)N[C@@H](CC(N)=O)C(=O)N[C@H]2C(=O)N[C@H]3C(=O)N[C@H](C(=O)N[C@H](C(=O)O)c4cc(O)cc(O)c4-c4cc3ccc4O)[C@H](O)c3ccc(c(Cl)c3)Oc3cc2cc(c3O[C@@H]2O[C@H](CO)[C@@H](O)[C@H](O)[C@H]2O[C@H]2C[C@](C)(N)[C@H](O)[C@H](C)O2)Oc2ccc(cc2Cl)[C@H]1O` [VANCOMYCIN] had an MIC50 of 1 µg/mL (≈ 0.69 µM) and an MIC90 of 1 µg/mL (≈ 0.69 µM). In addition, in the test on Clostridioides difficile [2], it took 0.5 µg/mL (≈ 0.345 µM) to inhibit growth (MIC), the MIC50 was determined as 0.5 µg/mL (≈ 0.345 µM) and the MIC90 was 2 µg/mL (≈ 1.38 µM). In addition, in the test with Clostridioides difficile [3], the MIC50 was 1 µg/mL (≈ 0.69 µM) and the MIC90 amounted to 1 µg/mL (≈ 0.69 µM).

Regarding RAMOPLANIN, the values for the MIC50 with Clostridioides difficile [1], against Clostridioides difficile [2] and in the test with Clostridioides difficile [3] were 0.25 µg/mL, 0.12 µg/mL and 0.25 µg/mL, respectively. The MIC90 with Clostridioides difficile [1], against Clostridioides difficile [2] and in the test with Clostridioides difficile [3] was 0.25 µg/mL in each case.

Broadly, the MIC is the lowest concentration that inhibits growth of the organism. A lower MIC goes with a more susceptible organism. For orientation: MIC50 means the lowest concentration that inhibits either 50% of growth or 50% of the strains tested, depending on the study. The low end stands for greater potency, the high end for weaker potency. In general, MIC90 refers to an inhibitory concentration at the 90% level, which refers to growth in some studies and to a panel of isolates in others. A low value points to higher susceptibility.

The values above are taken from ChEMBL document CHEMBL1671865, “Clostridium difficile infections in a Canadian tertiary care hospital before and during a regional epidemic associated with the BI/NAP1/027 strain” (2008).
